The test system of experiment [1] is full-thickness dermal wound. The experiment in a line: Histology of excised wounds (epithelialization zone, dermal regeneration). It counts as in vivo, SKH-1 hairless mice. The settings on record: day 4; 100 μM topical once a day. As to the method:
(§1) The experiments were performed on male SKH-1 hairless mice of our own rearing (body weight: 36-44 g). Procedures and protocols were approved by the competent authorities (license number: V./145/2013.). Only healthy animals free of any type of injury were used, mice with any sign of disorders were discarded. Prior to the interventions the animals were anesthetized with a mixture of ketamine (Sigma) (90 mg/kg) and xylazine (Sigma) (25 mg/kg) administered intraperitoneally. A skin fold was formed in the dorsal region and was fixed with two symmetrical, fenestrated titanium plates (IROLA GmbH, Schonach, Germany) according to the description of Sorg et al. (Sorg et al., 2007).
In the midline of the dorsal region two holding stitches were placed in order to form a skin fold. This skin fold was sandwiched by two symmetrical, fenestrated titanium plates. The plates were fixed with sutures, bolts and nuts. […]
Histology. […] Zone of epithelialization was defined as the extension of epithelial regeneration measured from the wound edges and given as percentage relative to the initial diameter of the wound. Dermal regeneration was determined, too (thickness of dermal connective tissue was measured within the wound area and was given as percentage relative to that of determined in the intact skin). […]

The test system of experiment [2] is microcirculation of the wound edges. The experiment in a line: Intravital videomicroscopy (IVM) of the microcirculation of the wound edges. It counts as in vivo, SKH-1 hairless mice. Conditions: 100 μM topical once a day. As to the method:
as §1
In the midline of the dorsal region two holding stitches were placed in order to form a skin fold. This skin fold was sandwiched by two symmetrical, fenestrated titanium plates. The plates were fixed with sutures, bolts and nuts. On one side of the skin fold, a circular full-thickness wound was made by removing the tissue down to muscle layer of the other side (the diameter of the wound was 4 mm while those of used for Laser-Doppler flowmetry came to 11 mm). The wound was covered with a glass coverslip incorporated into the window of the titanium frame. The glass was removed for the duration of treatments and measurements only. In the control group (n=6), the wounds were treated with 100 μL of sterile saline once a day while in the dantrolene-treated group (n=6) 100 μL of a solution containing the sodium salt of dantrolene (100 μM) was applied to the wound once a day (the salt was dissolved in sterile saline). The observation period took 20 days (according to our previous results this is the time period needed for approximately 100% closure of wounds of 4 mm).
Intravital videomicroscopy (IVM). Microcirculation of the wound edges was monitored by means of IVM on days 4, 8 and 12. After anesthesia, 80 μL of a solution of fluorescein-isothyocyanate (FITC) labeled dextrane (2%) and also 80 μL of a solution of rhodamine-6G was administered retrobulbar. These contrast materials allow us to visualize microcirculation and leukocyte-endothelial interactions at the appropriate wavelengths. Video records of the microcirculation were evaluated off-line with Pictron IVM software. Red blood cell velocity (RBCV) was determined in the capillaries, the diameter of each vessel in the evaluated fields-of-view was measured (only diameters above 6 μm were considered) and sticking leukocytes were counted in the postcapillary venules (this parameter is relative to the area of the vessel wall and is given as cell/μm2).
Control- and dantrolene-treated groups were compared with the Mann-Whitney test and p<0.05 was considered statistically significant.

Experiment [3] has as its system epidermal barrier function. Conditions: cited from earlier work.
The subject of experiment [4] is blood flow of the wound area. The experiment in a line: Laser-Doppler flowmetry of the wound area. It counts as in vivo, SKH-1 hairless mice. Conditions: day 1 after wound creation; 200 μL dantrolene solution, measured 10 minutes later; 11 mm wound. As to the method: as §1
(§2) In the midline of the dorsal region two holding stitches were placed in order to form a skin fold. This skin fold was sandwiched by two symmetrical, fenestrated titanium plates. The plates were fixed with sutures, bolts and nuts. On one side of the skin fold, a circular full-thickness wound was made by removing the tissue down to muscle layer of the other side (the diameter of the wound was 4 mm while those of used for Laser-Doppler flowmetry came to 11 mm). The wound was covered with a glass coverslip incorporated into the window of the titanium frame. The glass was removed for the duration of treatments and measurements only. […]

For experiment [5], the system named is full-thickness dermal wound. The experiment in a line: Macroscopic wound closure of full-thickness dermal wounds in a dorsal skin fold chamber (photo documentation). In kind it is in vivo, SKH-1 hairless mice. Conditions: for Rate of wound closure vs control group: 100 μM topical once a day.
Description: In our experiments, we have studied the effects of dantrolene on different parameters of wound healing. SKH-1 hairless male mice were used in the experiments. Full-thickness wound was made in a dorsal skin fold. The effects of dantrolene or saline (control group) on wound healing were monitored by means of photo documentation, intravital videomicroscopy (IVM) and laser Doppler flowmetry. The experimental setup was in accordance with the model described by Sorg et al. (Sorg et al., 2007). Wounds were treated daily either with dantrolene or with saline.
as §1, §2
Macroscopic wound closure. […] The images were evaluated with a software developed by our working group (DermAssess©). […]

Molecules are shown by their SMILES.

Consider `O=C1CN(/N=C/c2ccc(-c3ccc([N+](=O)[O-])cc3)o2)C(O)=N1` [dantrolene], for which, in experiment [1], the “Dermal regeneration vs control group” value is given as “more expressed”. Further, in experiment [1], the “Extension of epithelialization zone vs control” value was “more extended”. Further, the “Number of sticking leukocytes in the postcapillary venules, difference vs control” value in experiment [2] (day 12) is given as “not statistically significant”. For the same compound, the “Vessel diameters at the wound edges vs control group” value in experiment [2] (days 4, 8 and 12 (corresponding times)) was “considerably higher”. Moreover, the “Red blood cell velocity (RBCV) in the capillaries vs control group” value in experiment [2] (days 4, 8 and 12) was “higher”. For the same compound, the “Number of sticking leukocytes in the postcapillary venules vs control” value in experiment [2] (days 4 and 8) was “significantly decreased”. The Barrier regeneration entry in experiment [3] (local application, after removal of the uppermost layer of the epidermis) is “accelerates”. In addition, in experiment [3] (mice with barrier function impaired after tape stripping of the upper epidermis), the Transepidermal water loss result is on record as “ameliorate”. In experiment [4], the “Blood flow in the wound area after vs before dantrolene treatment” value was “significant elevation”. The “Macroscopic wound closure (decrease in wound area relative to baseline)” value in experiment [5] (by day 20, 100 μL of 100 μM dantrolene sodium salt solution on the wound once a day, 4 mm wound) is recorded as approximately 100%. The “Rate of wound closure vs control group” value is on record as “no difference” in experiment [5] (day 16); “significantly higher” in experiment [5] (days 4, 8 and 12, p<0.05 vs saline control).

Values taken from patent publication US9757360B2, “Pharmaceutical composition comprising a ryanodine receptor antagonist for facilitating wound healing” (SZEGEDI TUDOMÁNYEGYETEM, priority 2013, dated 2017).
